Results reported in patent publication US8772504B2, “Substituted benzoxazole, benzimidazole, oxazolopyridine and imidazopyridine derivatives as gamma secretase modulators” (Janssen Pharmaceuticals, Inc., priority 2009, dated 2014).
pIC50: −log10 of the molar value.

Legend:
[1] = system: Aβtotal; assay: Screening for γ-secretase-modulating activity, Method 1: Aβtotal sandwich ELISA on SKNBE2 cell media; type: cell-based; conditions: SKNBE2 cells carrying APP 695 wild type
Summary of the method: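 SKNBE2 cells expressing wild-type APP 695 were treated with compound for 18 hours. Aβtotal in the medium was measured by sandwich ELISA (6E10 capture, biotinylated 4G8 detection, fluorogenic peroxidase read-out). IC50 came from a 4-parameter fit of % inhibition with top/bottom fixed at 100/0 and Hill slope 1, or as averaged IC50 from % of untreated control.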

[2] = system: Notch-processing activity of the γ-secretase-complex; assay: Notch cell-free assay (NICD production from recombinant Notch substrate N99); type: biochemical, mouse; conditions: 1 μM test compound, 0.3-0.5 μM Notch substrate, 37° C. for 6 to 22 h, western blotting
Experimental: The Notch transmembrane domain is cleaved by gamma secretase to release
Notch Intracellular C-terminal Domain (NICD).
To monitor the effect of compounds on NICD production, a recombinant Notch substrate (N99) was prepared. The Notch substrate, comprised of mouse Notch fragment (V1711-E1809), an N-terminal methionine and a C-terminal FLAG sequence ([…]), was expressed in E. coli and purified on a column containing an anti-FLAG M2 affinity matrix.
A typical Notch cell-free assay consisted of 0.3-0.5 μM Notch substrate, an enriched preparation of γ secretase and 1 μM of a test compound (compounds 8, 15, 92, 108, 114 and 130 of the present invention). Controls included a γ secretase inhibitor (GSI), such as (2S)—N-[2-(3,5-difluorophenyeacetyl]-L-alanyl-2-phenyl-glycine 1,1-dimethylethyl ester (DAPT) or (2S)-2-hydroxy-3-methyl-N-[(1S)-1-methyl-2-oxo-2-[[(1S)-2,3,4,5-tetrahydro-3-methyl-2-oxo-1H-3-benzazepin-1-yl]amino]ethyl]-butanamide (Semagacestat), and DMSO, the final concentration of DMSO being 1%. Recombinant Notch substrate was pre-treated with 17 μM DTT (1,4-dithiothreitol) and 0.02% SDS (Sodium Dodecyl Sulfate) and heated at 65° C. for 10 min. The mixture of substrate, gamma secretase and compound/DMSO was incubated at 37° C. for 6 to 22 hours (h). 6 h incubation was sufficient to produce the maximal amount of NICD and the cleaved product remained stable for an additional 16 h. Reaction products were processed for SDS PAGE (Sodium Dodecyl Sulfate-Poly Acrylamide Gel Electrophoresis) and western blotting. Blots were probed with an anti-Flag M2 antibody, followed by LI-COR infrared secondary antibody, and analyzed with the Odyssey Infrared Imaging System (LI-COR® Biosciences).

[3] = system: T1, Notch-processing activity of the γ-secretase-complex; assay: Notch cell-based assay (N2-CHO/DL-CHO co-culture, Dual-Glo luciferase); parameters: species or system mouse; conditions: N2-CHO/DL-CHO co-culture 16 h; five-point curve 3 μM-0.3 nM
T1 construct: average IC50 Notch cell-based assay (luciferase readout); other: N2-CHO/DL-CHO co-culture 16 h; five-point curve 3 μM-
Excerpt: The Notch cell-based assay was based on the interaction of Notch and its ligand in a co-culture system and utilized the Dual-Glo Luciferase Assay System (Promega) to monitor NICD production. 2 stable cell lines, N2-CHO and DL-CHO, were established to express full-length mouse Notch2 and Delta respectively. Cells that expressed mouse Notch were also transfected with 2 plasmids, pTP1-Luc and pCMV-RLuc, to express firefly and Renilla luciferase. Expression of firefly luciferase was under the control of TP1 promoter that responded to NICD activation.
N2-CHO cells were seeded at 1×10^5/well in 24-well plates the day before transfection. On the second day, cells were double transfected with 3 μg/well pTP1-Luc (expressing firefly luciferase) and 0.3 ng/well pCMV-RLuc (expressing Renilla luciferase). After 6 h incubation, transfected N2-CHO cells were washed and DL-CHO cells (2×10^5 cells/well) were added.
Compounds were pre-mixed with DL-CHO cell suspension in a five-point curve. Typically, compound treatment was performed in duplicate with a serial 1:10 dilution (3 μM-0.3 nM) in DMSO. The final concentration of DMSO in a given culture was 1%. Controls included non-transfected cells and transfected cells treated with a GSI or DMSO only. Luciferase assays were performed after 16 h co-culture and compound treatment.
The luciferase assay was carried out according to manufacture's instructions. Briefly, cells were washed with PBS (Phosphate Buffered Saline), lysed with Passive Lysis Buffer (Promega), and incubated at room temperature for 20 min. Lysates were mixed with Dual-Glo Luciferase Reagent and the firefly luciferase activity was measured by reading the luminescence signal in the EnVision 2101 Multilabel reader. Dual-Glo Stop & Glo Reagent was then added to each well and the Renilla luciferase signal was measured.

[4] = Homo sapiens, Table 3a, 18 hours, XLfit, top/bottom fixed to 100 and 0, hill slope 1
[5] = Homo sapiens, Table 3b, non-linear regression of % of control, averaged IC50 values
[6] = Table 3a, 18 hours, XLfit, top/bottom fixed to 100 and 0, hill slope 1
[7] = Table 3b, non-linear regression of % of control, averaged IC50 values

Structure (SMILES) | pIC50 [1, 4] | pIC50 [1, 5] | melting point | effect on the Notch-processing activity of the γ-secretase-complex (production of NICD) [2] | inhibition in Notch cell-based assay (luciferase readout) [3] | pIC50 [1, 6] | pIC50 [1, 7]
COc1cc(Nc2cccc3c2nc(-c2ccc(F)cc2)n3C)ccc1-n1cnc(C)c1 [Compound 1] | < 6.00 | 4.87 | 130.9 °C |  |  |  | 
COc1cc(Nc2cccc3c2nc(-c2ccc(F)cc2)n3C)ccc1-n1cnc(C)n1 [Compound 4] | < 5.52 | < 5.52 | 185.2 °C |  |  |  | 
COc1cc(Nc2nccc3c2nc(-c2ccc(F)cc2)n3C)ccc1-n1cnc(C)c1 [Compound 8] | < 5.52 | < 5.52 |  | did not show an effect |  |  | 
COc1nc(Nc2cccc3c2nc(-c2ccc(F)cc2)n3C)ccc1-n1cnc(C)c1 [Compound 15] | < 5.52 | < 5.52 |  | did not show an effect | non-inhibitory |  | 
CCn1c(CC2CC2)nc2c(Nc3ccc(-n4cnc(C)c4)c(OC)c3)cccc21 [Compound 36] |  |  |  |  |  | < 5.52 | < 5.52
COc1cc(Nc2cccc3c2nc(Oc2ccccc2)n3C)ccc1-n1cnc(C)c1 [Compound 61] |  |  |  |  |  | < 5.52 | < 5.52
Cc1cn(-c2ccc(Nc3cccc4c3nc(-c3ccc(F)cc3)n4C)cc2F)cn1 [Compound 67] |  |  |  |  |  | < 5.52 | < 5.52
Cc1ncn(-c2ccc(Nc3cccc4c3nc(-c3ccc(F)cc3)n4C(C)C)cc2)n1.Cl.Cl [Compound 73] |  |  |  |  |  | < 5.52 | < 5.52
COc1cc(Nc2cccc3c2nc(-c2ccc(F)cc2)n3C(C)C)ccc1-n1cnc(C)n1.Cl.Cl [Compound 75] |  |  |  |  |  | < 5.52 | < 5.52
Cc1ncn(-c2ccc(Nc3cccc4c3nc(-c3ccc(F)cc3)n4C(C)C)cn2)n1 [Compound 76] |  |  |  |  |  | < 5.52 | < 5.00
COc1cc(Nc2nccc3c2nc(-c2ccc(F)cc2)n3C)ccc1-n1cnc(C)n1 [Compound 92] |  |  |  | did not show an effect | non-inhibitory | < 5.00 | < 5.00
COc1cc(Nc2cc(C(C)C)nc3c2nc(-c2ccc(F)cc2)n3C)ccc1-n1cnc(C)n1 [Compound 110] | < 5.52 | 5.93 |  |  |  |  | 
COc1cc(-c2nc3c(Nc4ccc(-n5cnc(C)n5)c(OC)c4)nccc3n2C)ccc1Cl [Compound 114] | < 5.52 | < 5.52 | 186.8 °C | did not show an effect | non-inhibitory |  | 
COc1nc(Nc2cc(F)cc3c2nc(-c2ccc(F)cc2)n3C)ccc1-n1cnc(C)c1 [Compound 115] |  |  |  |  |  | < 5.00 | 
COc1cc(Nc2nccc3c2nc(-c2ccccc2C(F)(F)F)n3C)ccc1-n1cnc(C)n1 [Compound 130] |  |  |  | did not show an effect | non-inhibitory |  | < 5.52
COc1cc(Nc2nc(C)cc3c2nc(-c2ccc(F)cc2)n3C)ccc1-n1cnc(C)n1 [Compound 164] |  |  |  |  |  |  | < 5.52
